Measured values as given in publication PMC5706701, “Development of a homogenous high-throughput assay for inositol hexakisphosphate kinase 1 activity” (PLoS ONE, 2017).
Where two headings read alike, the source gives them in different places.

Molecular target: T1, Human IP6K1 (Homo sapiens, UniProt Q92551)
T1 construct: GST (N, cleaved yes); made in house; host or cells: C43 E. coli, pGEX-6P-2
Test: IP6K1 high-throughput screen of the Sigma LOPAC (ADP-Glo Max, single point);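 also: final compound concentration 10µM in 5% DMSO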
Assay type: biochemical

[1] = Sigma LOPAC single-point screen, ADP-Glo Max raw signal per well
[2] = Sigma LOPAC single-point screen, Z-score from plate average and StDev
[3] = LOPAC single-point screen, ADP-Glo Max luminescence raw signal per well
[4] = LOPAC single-point screen, Z-score relative to plate average and StDev
[5] = LOPAC single-point screen, ADP-Glo Max raw signal per well
[6] = LOPAC single-point screen, Z-score against plate average and StDev
[7] = LOPAC single-point screen, Z-score from raw signal with plate average and StDev
[8] = LOPAC single-point screen, Z-score from plate average and StDev

T1 sequence (Q92551 whole entry): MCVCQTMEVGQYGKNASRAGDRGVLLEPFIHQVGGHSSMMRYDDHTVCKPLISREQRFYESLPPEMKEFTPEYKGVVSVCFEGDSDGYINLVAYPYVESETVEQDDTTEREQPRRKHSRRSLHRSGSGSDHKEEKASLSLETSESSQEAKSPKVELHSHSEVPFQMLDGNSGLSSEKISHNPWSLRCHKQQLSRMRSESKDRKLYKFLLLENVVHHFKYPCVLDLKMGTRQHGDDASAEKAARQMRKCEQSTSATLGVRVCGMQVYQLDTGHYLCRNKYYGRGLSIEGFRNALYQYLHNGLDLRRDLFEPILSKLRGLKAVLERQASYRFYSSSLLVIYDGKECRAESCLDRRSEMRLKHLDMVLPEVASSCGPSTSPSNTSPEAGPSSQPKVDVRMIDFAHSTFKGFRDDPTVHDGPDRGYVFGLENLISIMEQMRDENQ

Compound: C=CCn1c(=O)c2c(nc(-c3ccc(S(=O)(=O)O)cc3)n2C)n(C)c1=O
- Raw Signal [1]: 65523
- Z-score [2]: 1.34

Compound: Cl.NC1(C(=O)O)CCCCC1
- Raw Signal [3]: 53186
- Z-score [4]: -0.8326

Compound: Cl.NC1(C(=O)O)CC1
- Raw Signal [1]: 65481
- Z-score [2]: 1.333

Compound: Clc1ccc(C(c2ccccc2Cl)C(Cl)Cl)cc1 (stereo not shown)
- Raw Signal [5]: 59387
- Z-score [6]: 0.2596

Compound: COc1ccccc1N1CCNCC1.Cl
- Raw Signal [5]: 57311
- Z-score [6]: 0.2501

Compound: Cl.Cl.Clc1cccc(N2CCNCC2)c1
- Raw Signal [1]: 60295
- Z-score [2]: 0.4195

Compound: COc1ccc2c(c1)c(CC(=O)O)c(C)n2Cc1ccc(Cl)cc1
- Raw Signal [1]: 64773
- Z-score [2]: 1.208

Compound: COc1ccc2c(c1)c(CC(=O)O)c(C)n2Cc1ccc(F)cc1
- Raw Signal [5]: 54531
- Z-score [7]: -0.1292

Compound: CC1CNCCN1S(=O)(=O)c1cccc2cnccc12.Cl.Cl (stereo not shown)
- Raw Signal [5]: 52932
- Z-score [7]: -0.2456

Compound: CC1CN(S(=O)(=O)c2cccc3cnccc23)CCN1.Cl.Cl (stereo not shown)
- Raw Signal [5]: 53944
- Z-score [6]: -0.07553

Compound: Cl.N=C(N)NC(=N)Nc1cccc(Cl)c1
- Raw Signal [3]: 49824
- Z-score [4]: -1.085

Compound: COc1ccc2c(c1)c(CC(=O)O)c(C)n2C(=O)c1ccccc1
- Raw Signal [3]: 53454
- Z-score [4]: -0.7854

Compound: CCN(CC)C(C)C(=O)N1c2ccccc2Sc2ccccc21.Cl (stereo not shown)
- Raw Signal [5]: 55206
- Z-score [6]: 0.007914

Compound: C[N+]1(C)CCN(c2ccccc2)CC1.[I-]
- Raw Signal [5]: 55993
- Z-score [6]: 0.1677

Compound: CCCc1c(-c2ccc(O)cc2)nn(-c2ccc(O)cc2)c1-c1ccc(O)cc1
- Raw Signal [3]: 52149
- Z-score [4]: -0.6129

Compound: Cl.NCC(O)C1CCCCCCC1 (stereo not shown)
- Raw Signal [3]: 52354
- Z-score [4]: -0.5713

Compound: CSc1nc(N)c2ncn([C@@H]3O[C@H](COP(=O)(O)OP(=O)(O)O)[C@@H](O)[C@H]3O)c2n1.[Na].[Na].[Na]
- Raw Signal [5]: 54295
- Z-score [6]: -0.01655

Compound: CSc1nc(N)c2ncn([C@@H]3O[C@H](COP(=O)([O-])OP(=O)([O-])OP(=O)([O-])[O-])[C@@H](O)[C@H]3O)c2n1.[Na+].[Na+].[Na+].[Na+]
- Raw Signal [5]: 58230
- Z-score [6]: 0.05581

Compound: Br.Br.N=C(N)SCCN
- Raw Signal [5]: 59514
- Z-score [6]: 0.282

Compound: C[N+](C)(C)CCC(=O)c1cccc2ccccc12.[I-]
- Raw Signal [5]: 55064
- Z-score [6]: 0.1127

Compound: O=[N+]([O-])c1ccc(O[C@@H]2O[C@H](CO)[C@@H](O)[C@H](O)[C@H]2F)c([N+](=O)[O-])c1
- Raw Signal [3]: 50009
- Z-score [4]: -1.048

Compound: NC(=O)COc1c(F)cc(SCCNS(=O)(=O)c2ccccc2)cc1F
- Raw Signal [5]: 52796
- Z-score [7]: -0.2684

Compound: COc1cc(CCN)ccc1O.Cl
- Raw Signal [5]: 53513
- Z-score [7]: -0.1479

Compound: Cc1nnc2ccc(-c3cccc(C(F)(F)F)c3)nn12
- Raw Signal [5]: 54310
- Z-score [6]: -0.01403

Compound: CN1C2CCC1CC(OC(=O)c1c[nH]c3ccccc13)C2.Cl (stereo not shown)
- Raw Signal [5]: 56078
- Z-score [6]: 0.01053

Compound: C[N+]1(C)C2CCC1CC(OC(=O)c1c[nH]c3ccccc13)C2.[I-] (stereo not shown)
- Raw Signal [3]: 66909
- Z-score [8]: 2.115

Compound: Cl.Fc1ccc(C(OCCCc2c[nH]cn2)c2ccc(F)cc2)cc1
- Raw Signal [5]: 51668
- Z-score [7]: -0.458

Compound: C[C@]12CC[C@@H](O)C[C@@H]1CC[C@@H]1[C@@H]2CC[C@]2(C)[C@@H](C(=O)CO)CC[C@@H]12
- Raw Signal [5]: 54259
- Z-score [6]: -0.0226

Compound: CN1C2CCC1CC(OC(c1ccccc1)c1ccc(Cl)cc1)C2.Cl (stereo not shown)
- Raw Signal [3]: 50933
- Z-score [4]: -0.8599

Compound: Cl.O=C(OC1CCN(CCCl)CC1)C(c1ccccc1)c1ccccc1
- Raw Signal [5]: 54369
- Z-score [7]: -0.1621

Compound: COc1ccc(CCN)cc1O.Cl
- Raw Signal [5]: 55159
- Z-score [6]: -0.001632

Compound: Cl.NCCc1ccc(S(=O)(=O)F)cc1
- Raw Signal [5]: 58918
- Z-score [6]: 0.177

Compound: O=C(O)c1cc([N+](=O)[O-])ccc1NCCCc1ccccc1
- Raw Signal: 51963
- Z-score: -0.4084

Compound: COc1ccc2[nH]c3c(c2c1)CCNC3
- Raw Signal [3]: 69821
- Z-score [8]: 2.097

Compound: Cc1cccc(C#Cc2ccccc2)n1.Cl
- Raw Signal [3]: 51049
- Z-score [4]: -0.562

Compound: Oc1cc(-c2ccccc2)nc2nc(Cl)ccc12
- Raw Signal [5]: 57826
- Z-score [6]: -0.01534

Compound: Nc1ncnc2c1c(-c1ccc(Oc3ccccc3)cc1)cn2C1CCCC1
- Raw Signal [5]: 53911
- Z-score [7]: -0.2551

Compound: COCc1nc2c([nH]1)c(=O)n(C)c(=O)n2CC(C)C
- Raw Signal [5]: 51997
- Z-score [7]: -0.4027

Compound: Cl.Nc1c2c(nc3ccccc13)CCCC2
- Raw Signal: 49916
- Z-score: -1.409

Compound: C[C@H]1CCC/C=C/[C@@H]2C[C@H](O)C[C@H]2[C@H](O)/C=C/C(=O)O1
- Raw Signal [1]: 59928
- Z-score [2]: 0.3549

Compound: Cl.Nc1ccn([C@@H]2O[C@H](CO)[C@@H](O)[C@@H]2O)c(=O)n1
- Raw Signal [3]: 65878
- Z-score [8]: 1.403

Compound: Br.COc1ccc2c(c1)[C@]13CCCC[C@@H]1[C@H](C2)N(C)CC3.O
- Raw Signal [5]: 54296
- Z-score [7]: -0.1769

Compound: O=C(O)CN(CCOCCOCCN(CC(=O)O)CC(=O)O)CC(=O)O
- Raw Signal: 55582
- Z-score: 0.08428

Compound: NC(N)=Nc1ccc2[nH]c3c(c2c1)C[C@@]1(O)[C@H]2Cc4ccc(O)c5c4[C@@]1(CCN2CC1CC1)[C@H]3O5.O=C(O)C(F)(F)F.O=C(O)C(F)(F)F
- Raw Signal [3]: 65830
- Z-score [8]: 2.166

Compound: Cl.O[Si](CCCN1CCCCC1)(c1ccc(F)cc1)C1CCCCC1 (stereo not shown)
- Raw Signal [5]: 52920
- Z-score [7]: -0.4564

Compound: C[C@@H](N)Cc1cnc[nH]1.Cl.Cl
- Raw Signal: 55341
- Z-score: 0.03533

Compound: COC(=O)[C@@H](N)Cc1ccc(O)c(O)c1.Cl
- Raw Signal [3]: 38457
- Z-score [4]: -3.394

Compound: CC(=N)NCCC[C@H](N)C(=O)O.Cl
- Raw Signal [5]: 54044
- Z-score [6]: -0.05873

Compound: CCc1c(C(=O)OC)ncc2[nH]c3cc(OC)c(OC)cc3c12
- Raw Signal [1]: 57006
- Z-score [2]: 0.3735

Compound: COc1cccc(C(=O)NCCN2CCN(c3ccc(Cl)cc3)CC2)c1
- Raw Signal [5]: 55564
- Z-score [7]: -0.4137

Compound: Cl.NCCCCNS(=O)(=O)c1ccc2c(Cl)cccc2c1
- Raw Signal [5]: 59537
- Z-score [6]: 0.286

Compound: Cl.O=C(CCCN1CCC2(CC1)C(=O)N(CCc1ccc(N=C=S)cc1)CN2c1ccccc1)c1ccc(F)cc1
- Raw Signal [5]: 54409
- Z-score [6]: 0.002603

Compound: CNCCc1c[nH]c2ccc(O)cc12.O=C(O)C(=O)O
- Raw Signal [5]: 53556
- Z-score [7]: -0.1407

Compound: Cc1ccc(S(=O)(=O)N[C@@H](Cc2ccccc2)C(=O)CCl)cc1
- Raw Signal [1]: 59222
- Z-score [2]: 0.6213

Compound: COC(=O)[C@@H](N)CCCN=C(N)N[N+](=O)[O-].Cl
- Raw Signal [1]: 58464
- Z-score [2]: 0.6839

Compound: CCCCCCN(CCCCCC)C(=O)Cc1c(-c2ccc(F)cc2)[nH]c2ccccc12
- Raw Signal [5]: 56591
- Z-score [6]: 0.2892

Compound: CCCN(CCC)CCc1c[nH]c2ccc(C(N)=O)cc12.O=C(O)/C=C\C(=O)O
- Raw Signal [1]: 60214
- Z-score [2]: 1.025

Compound: CC(COc1ccc(/C=C/c2ccccc2)cc1)[N+](C)(C)C.[I-] (stereo not shown)
- Raw Signal [3]: 63739
- Z-score [8]: 1.499

Compound: Cc1ccc(S(=O)(=O)N[C@@H](CCCCN)C(=O)CCl)cc1.Cl
- Raw Signal [3]: 53467
- Z-score [4]: -0.4967

Compound: CC(Cc1ccc(O)c(O)c1)C(C)Cc1ccc(O)c(O)c1 (stereo not shown)
- Raw Signal [5]: 56278
- Z-score [6]: 0.3166

Compound: Cl.NOCC(=O)O.NOCC(=O)O
- Raw Signal [3]: 66377
- Z-score [8]: 1.491

Compound: Nc1ncnc2c1ncn2[C@@H]1O[C@H](COP(=O)(O)OP(=O)(O)OP(=O)(O)OP(=O)(O)OC[C@H]2O[C@@H](n3cnc4c(N)ncnc43)[C@H](O)[C@@H]2O)[C@@H](O)[C@H]1O
- Raw Signal [5]: 55437
- Z-score [6]: 0.05483

Compound: NC(Cc1cccc(-c2ccccc2CP(=O)(O)O)c1)C(=O)O (stereo not shown)
- Raw Signal [5]: 56365
- Z-score [6]: 0.06629

Compound: Br.CCCN1CCc2cc(O)cc3c2[C@H]1Cc1ccc(O)c(O)c1-3
- Raw Signal [3]: 52120
- Z-score [4]: -0.6188

Compound: Br.CN1CCc2cc(O)cc3c2[C@H]1Cc1ccc(O)c(O)c1-3
- Raw Signal [3]: 51557
- Z-score [4]: -0.7332

Compound: CN[C@H](CC(C)C)C(=O)N[C@H]1C(=O)N[C@@H](CC(N)=O)C(=O)N[C@H]2C(=O)N[C@H]3C(=O)N[C@H](C(=O)N[C@H](C(=O)O)c4cc(O)cc(O)c4-c4cc3ccc4O)[C@H](O)c3ccc(c(Cl)c3)Oc3cc2cc(c3O[C@@H]2O[C@H](CO)[C@@H](O)[C@H](O)[C@H]2O[C@H]2C[C@](C)(N)[C@H](O)[C@H](C)O2)Oc2ccc(cc2Cl)[C@H]1O.Cl
- Raw Signal [1]: 61643
- Z-score [2]: 1.0917

Compound: N[C@H](C(=O)O)[C@H]1C[C@@H]1C(=O)O
- Raw Signal [5]: 55555
- Z-score [6]: 0.07879

Compound: C[C@H](O)[C@H](O)[C@H]1CNc2nc(N)[nH]c(=O)c2N1.Cl
- Raw Signal [5]: 53766
- Z-score [7]: -0.4386

Compound: CC[C@@H]1Cc2cc(O)ccc2C2=C1c1ccc(O)cc1C[C@H]2CC
- Raw Signal [3]: 51869
- Z-score [4]: -0.6698

Compound: Nc1ncnc2c1ncn2[C@@H]1O[C@H](COP(=O)(O)CP(=O)(O)OP(=O)([O-])[O-])[C@@H](O)[C@H]1O.[Li+].[Li+]
- Raw Signal [3]: 51012
- Z-score [4]: -0.5682

Compound: CCCCCCC(C(C)O)n1cnc2c(N)ncnc21.Cl (stereo not shown)
- Raw Signal [3]: 51235
- Z-score [4]: -0.7986

Compound: 5-Bromo-2 -deoxyuridine
- Raw Signal: 57175
- Z-score: -0.13

Compound: 17alpha-hydroxyprogesterone
- Raw Signal [1]: 57278
- Z-score [2]: 0.4287

Compound: CCOC(=O)[C@]12CC1/C(=N\O)c1ccccc1O2 (mixture of isomers) [CPCCOEt]
- Raw Signal [5]: 59801
- Z-score [6]: 0.3325
